Results reported in patent US11000033B2, “Ketone or oxime compound, and herbicide” (NISSAN CHEMICAL CORPORATION, priority 2014, dated 2021).

What was measured:
Format in all cases: in vivo
Abutilon theophrasti = experiment: Test Example 5: herbicidal effect by foliage application, plastic box (symbol M); details: 320 g/ha, 3 weeks after application
Summary of the method: (§1)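 Sowing in sterilized diluvial soil, 14 days' greenhouse growth at 25° C. to 30° C., then uniform small-sprayer foliar application of aqueous emulsion dilution; plants scored three weeks afterwards.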

Cyperus difformis = experiment: Test Example 3: herbicidal effect by foliage application, Wagner pot (symbol E); details: application herbicide amount 320 g/ha
Summary of the method: (§2)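 The compound, formulated as an emulsion and diluted with water to a predetermined rate, is applied uniformly to leaves of two-week-old seedlings growing in submerged alluvial soil at 25–30 °C. Rice is included. Each plant is assessed 3 weeks later using defined criteria.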

Stellaria media = experiment: Test Example 5: herbicidal effect by foliage application, plastic box (symbol P); details: 320 g/ha, 3 weeks after application
Summary of the method: as §1

Alopecurus myosuroides = experiment: Test Example 5: herbicidal effect by foliage application, plastic box (symbol J); details: 320 g/ha, 3 weeks after application
Summary of the method: as §1

beet = experiment: Test Example 4: effect on crop by soil treatment (symbol f); details: application herbicide amount 320 g/ha
Summary of the method: (§3)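 Grown at 25° C. to 30° C. in a greenhouse, the crops came from seed sown spot-wise in sterilized diluvial soil under roughly 1.5 cm of covering soil.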

soybean = experiment: Test Example 5: effect on crop by foliage application, plastic box (symbol d); details: 320 g/ha, 3 weeks after application
Summary of the method: (§4)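 Plants were raised from seed in a greenhouse (25° C. to 30° C.) after sowing in a plastic box of sterilized diluvial soil.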

Chenopodium album [1] = experiment: Test Example 5: herbicidal effect by foliage application, plastic box (symbol O); details: 320 g/ha, 3 weeks after application
Summary of the method: as §1

Leptochloa chinensis = experiment: Test Example 3: herbicidal effect by foliage application, Wagner pot (symbol D); details: application herbicide amount 320 g/ha
Summary of the method: as §2

Digitaria ciliaris = experiment: Test Example 4: herbicidal effect by soil treatment (symbol F); details: application herbicide amount 320 g/ha
Summary of the method: (§5)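 Seeds were sown in sterilized diluvial soil, covered with about 1.5 cm of soil, and the soil surface was sprayed with a water-diluted emulsion of the compound at a predetermined rate. Plants grew in a greenhouse at 25° C. to 30° C.; effects were scored visually 3 weeks after application.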

rice plant = experiment: Test Example 5: effect on crop by foliage application, plastic box (symbol b); details: 320 g/ha, 3 weeks after application
Summary of the method: as §4

[2] = system: Echinochloa crus-galli var. crus-galli; experiment: Test Example 4: herbicidal effect by soil treatment (symbol H); details: application herbicide amount 320 g/ha
Summary of the method: as §5

rice = experiment: Test Example 4: effect on crop by soil treatment (symbol b); details: application herbicide amount 320 g/ha
Summary of the method: as §3

Scirpus juncoides = experiment: Test Example 1: herbicidal activity, application before weed generation in submerged conditions (symbol B); details: application herbicide amount 320 g/ha
Summary of the method: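 Flooded alluvial soil (4 cm water) was mixed-sown with the three weed species, and 2.5-leaf rice seedlings were transplanted. On sowing day, a water-diluted emulsion at a predetermined rate was applied to the water surface. After 3 weeks in a 25–30 °C greenhouse, effect was scored 0–5.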

Chenopodium album [3] = experiment: Test Example 4: herbicidal effect by soil treatment (symbol O); details: application herbicide amount 320 g/ha
Summary of the method: as §5

Veronica persica = experiment: Test Example 5: herbicidal effect by foliage application, plastic box (symbol R); details: 320 g/ha, 3 weeks after application
Summary of the method: as §1

Galium spurium = experiment: Test Example 5: herbicidal effect by foliage application, plastic box (symbol Q); details: 320 g/ha, 3 weeks after application
Summary of the method: as §1

Amaranthus retroflexus = experiment: Test Example 4: herbicidal effect by soil treatment (symbol N); details: application herbicide amount 320 g/ha
Summary of the method: as §5

Setaria viridis = experiment: Test Example 5: herbicidal effect by foliage application, plastic box (symbol G); details: 320 g/ha, 3 weeks after application
Summary of the method: as §1

Lolium multiflorum Lam. = experiment: Test Example 4: herbicidal effect by soil treatment (symbol K); details: application herbicide amount 320 g/ha
Summary of the method: as §5

Compound | M: Abutilon theophrasti, herbicidal effect grade (Abutilon theophrasti) | herbicidal effect on E, grade 0-5 (Cyperus difformis) | P: Stellaria media, herbicidal effect grade (Stellaria media) | J: Alopecurus myosuroides, herbicidal effect grade (Alopecurus myosuroides) | f: beet, effect on crop grade (beet) | d: soybean, effect on crop grade (soybean) | O: Chenopodium album, herbicidal effect grade (Chenopodium album [1]) | herbicidal effect on D (Leptochloa chinensis), grade 0-5 (Leptochloa chinensis) | F: Digitaria ciliaris, herbicidal effect grade (Digitaria ciliaris) | b: directly sowed rice plant, effect on crop grade (rice plant) | H: Echinochloa crus-galli var. crus-galli, herbicidal effect grade [2] | b: directly sowed rice plant, effect on crop grade (rice) | Herbicidal effect grade, B: Scirpus juncoides (Scirpus juncoides) | O: Chenopodium album, herbicidal effect grade (Chenopodium album [3]) | R: Veronica persica, herbicidal effect grade (Veronica persica) | Q: Galium spurium, herbicidal effect grade (Galium spurium) | N: Amaranthus retroflexus, herbicidal effect grade (Amaranthus retroflexus) | G: Setaria viridis, herbicidal effect grade (Setaria viridis) | K: Lolium multiflorum Lam., herbicidal effect grade (Lolium multiflorum Lam.)
C=CC(=O)CC1CC(O)=C(c2c(C)cc(C)cc2C)C1=O (stereo not shown) [2-031] | 0 (Herbicidal ratio of 5% or lower (almost no effect)) | 5 (Herbicidal ratio of 90% or more (almost completely withered)) | 0 (Herbicidal ratio of 5% or lower (almost no effect)) | 5 (Herbicidal ratio of 90% or more (almost completely withered)) | 0 (Herbicidal ratio of 5% or lower (almost no effect)) | 0 (Herbicidal ratio of 5% or lower (almost no effect)) | 0 (Herbicidal ratio of 5% or lower (almost no effect)) | 5 (Herbicidal ratio of 90% or more (almost completely withered)) | 5 (Herbicidal ratio of 90% or more (almost completely withered)) | 5 (Herbicidal ratio of 90% or more (almost completely withered)) | 5 (Herbicidal ratio of 90% or more (almost completely withered)) | 5 (Herbicidal ratio of 90% or more (almost completely withered)) | 4 (Herbicidal ratio of 70% or higher and lower than 90%) | 0 (Herbicidal ratio of 5% or lower (almost no effect)) | 4 (Herbicidal ratio of 70% or higher and lower than 90%) | 0 (Herbicidal ratio of 5% or lower (almost no effect)) | 0 (Herbicidal ratio of 5% or lower (almost no effect)) | 5 (Herbicidal ratio of 90% or more (almost completely withered)) | 5 (Herbicidal ratio of 90% or more (almost completely withered))
Cc1cc(C)c(C2=C(O)CC(CC(=O)c3ccc(F)cc3)C2=O)c(C)c1 (stereo not shown) [2-032] | 0 (Herbicidal ratio of 5% or lower (almost no effect)) | 4 (Herbicidal ratio of 70% or higher and lower than 90%) | 0 (Herbicidal ratio of 5% or lower (almost no effect)) | 4 (Herbicidal ratio of 70% or higher and lower than 90%) | 0 (Herbicidal ratio of 5% or lower (almost no effect)) | 0 (Herbicidal ratio of 5% or lower (almost no effect)) | 0 (Herbicidal ratio of 5% or lower (almost no effect)) | 3 (Herbicidal ratio of 40% or higher and lower than 70%) | 4 (Herbicidal ratio of 70% or higher and lower than 90%) | 5 (Herbicidal ratio of 90% or more (almost completely withered)) | 4 (Herbicidal ratio of 70% or higher and lower than 90%) | 5 (Herbicidal ratio of 90% or more (almost completely withered)) | 4 (Herbicidal ratio of 70% or higher and lower than 90%) | 0 (Herbicidal ratio of 5% or lower (almost no effect)) | 0 (Herbicidal ratio of 5% or lower (almost no effect)) | 0 (Herbicidal ratio of 5% or lower (almost no effect)) | 0 (Herbicidal ratio of 5% or lower (almost no effect)) | 5 (Herbicidal ratio of 90% or more (almost completely withered)) | 5 (Herbicidal ratio of 90% or more (almost completely withered))
CON=C(C)CC1CC(O)=C(c2c(C)cc(Br)cc2C)C1=O (stereo not shown) [6-003] | 3 (Herbicidal ratio of 40% or higher and lower than 70%) | 5 (Herbicidal ratio of 90% or more (almost completely withered)) | 2 (Herbicidal ratio of 20% or higher and lower than 40%) | 5 (Herbicidal ratio of 90% or more (almost completely withered)) | 0 (Herbicidal ratio of 5% or lower (almost no effect)) | 3 (Herbicidal ratio of 40% or higher and lower than 70%) | 1 (Herbicidal ratio of 5% or higher and lower than 20%) | 5 (Herbicidal ratio of 90% or more (almost completely withered)) | 5 (Herbicidal ratio of 90% or more (almost completely withered)) | 5 (Herbicidal ratio of 90% or more (almost completely withered)) | 5 (Herbicidal ratio of 90% or more (almost completely withered)) | 5 (Herbicidal ratio of 90% or more (almost completely withered)) | 4 (Herbicidal ratio of 70% or higher and lower than 90%) | 0 (Herbicidal ratio of 5% or lower (almost no effect)) | 0 (Herbicidal ratio of 5% or lower (almost no effect)) | 3 (Herbicidal ratio of 40% or higher and lower than 70%) | 3 (Herbicidal ratio of 40% or higher and lower than 70%) | 5 (Herbicidal ratio of 90% or more (almost completely withered)) | 5 (Herbicidal ratio of 90% or more (almost completely withered))
CON=C(C)CC1CC(O)=C(c2c(C)cc(C(C)=O)cc2C)C1=O (stereo not shown) [6-026] | 0 (Herbicidal ratio of 5% or lower (almost no effect)) | 5 (Herbicidal ratio of 90% or more (almost completely withered)) | 0 (Herbicidal ratio of 5% or lower (almost no effect)) | 5 (Herbicidal ratio of 90% or more (almost completely withered)) | 0 (Herbicidal ratio of 5% or lower (almost no effect)) | 0 (Herbicidal ratio of 5% or lower (almost no effect)) | 0 (Herbicidal ratio of 5% or lower (almost no effect)) | 5 (Herbicidal ratio of 90% or more (almost completely withered)) | 4 (Herbicidal ratio of 70% or higher and lower than 90%) | 5 (Herbicidal ratio of 90% or more (almost completely withered)) | 1 (Herbicidal ratio of 5% or higher and lower than 20%) | 5 (Herbicidal ratio of 90% or more (almost completely withered)) | 0 (Herbicidal ratio of 5% or lower (almost no effect)) | 0 (Herbicidal ratio of 5% or lower (almost no effect)) | 1 (Herbicidal ratio of 5% or higher and lower than 20%) | 0 (Herbicidal ratio of 5% or lower (almost no effect)) | 2 (Herbicidal ratio of 20% or higher and lower than 40%) | 5 (Herbicidal ratio of 90% or more (almost completely withered)) | 1 (Herbicidal ratio of 5% or higher and lower than 20%)
